Measured values as given in ChEMBL document CHEMBL1125482, “Pharmacokinetics of catechol cephalosporins. The effect of incorporating substituents into the catechol moiety on pharmacokinetics in a marmoset model” (J Med Chem, 1992).
Converted amounts (≈) assume the structure as drawn.

Legend:
[1] = test system: Enterobacter cloacae; assay: microbe, parasite or virus in culture
Description: Compound was tested for antimicrobial activity against Enterobacter cloacae constitutive derepressed type I beta-lactamase producer (P99+) strain

[2] = Urinary recovery in marmosets (IV dose); format: ADME, organism-based; conditions: callithrix, urine, read-out: Recovery
[3] = test system: Staphylococcus aureus; assay: microbe, parasite or virus in culture
Description: Compound was tested for antimicrobial activity against Staphylococcus aureus Oxford strain

[4] = test system: Staphylococcus aureus; assay: microbe, parasite or virus in culture; remark: listed apart in the source
Description: Compound was tested for antimicrobial activity against Staphylococcus aureus penicillin sensitive Staphylococcus aureus (147N) strain

[5] = species: Canis familiaris; conditions: dog, in vivo, iv
[6] = test system: Escherichia coli; assay: microbe, parasite or virus in culture
Description: Compound was tested for antimicrobial activity against Escherichia coli DC2 strain (permeability mutant)

[7] = test system: Pseudomonas aeruginosa; assay: Compound was tested for antimicrobial activity against Pseudomonas aeruginosa constitutive derepressed type I beta-lactamase producer (18SH) strain; format: functional
[8] = test system: Pseudomonas aeruginosa; assay: microbe, parasite or virus in culture
Description: Compound was tested for antimicrobial activity against Pseudomonas aeruginosa PU21 strain

[9] = physchem
Description: Dissociation constant (pKa)

[10] = test system: Escherichia coli; assay: microbe, parasite or virus in culture; remark: listed apart in the source
Description: Compound was tested for antimicrobial activity against Escherichia coli DC0 strain (parent organism)

[11] = species: Homo sapiens; assay: Compound was tested for serum protein binding in human blood; format: functional
[12] = test system: Enterobacter cloacae; assay: microbe, parasite or virus in culture; remark: listed apart in the source
Description: Compound was tested for antimicrobial activity against Enterobacter cloacae inducible type I beta-lactamase producer (P99-) strain

[13] = in vivo; conditions: callithrix, serum, iv
Description: Serum T1/2 in marmosets (IV dose)

[14] = test system: Pseudomonas aeruginosa; assay: microbe, parasite or virus in culture; remark: listed apart in the source
[15] = test system: Mus musculus; assay: Compound was evaluated in vivo for antibacterial activity against Pseudomonas aeruginosa (strain 101010) in mice; range 1.0-6.0 mg/Kg; format: functional
[16] = test system: Mus musculus; assay: Compound was evaluated in vivo for antibacterial activity against Pseudomonas aeruginosa (strain 101010) in mice; format: functional; conditions: read-out: PD50
[17] = species: Homo sapiens; assay: Compound is evaluated for serum protein binding in human blood […]; format: functional

SMILES | MIC [1] [µg/mL] | dose excreted [2] [%] | MIC [3] [µg/mL] | MIC [4] [µg/mL] | AUC [5] [mg/h/L] | MIC [6] [µg/mL] | MIC [7] [µg/mL] | MIC [8] [µg/mL] | pKa [9] | MIC [10] [µg/mL] | Activity [11] [%] | MIC [12] [µg/mL] | half-life [13] [h] | MIC [14] [µg/mL] | PD50 [15] [µg/mL] | ED50 [16] [mg/kg] | Activity [17] [%]
CC(C)(O/N=C(\C(=O)N[C@@H]1C(=O)N2C(C(=O)O)=C(CNC(=O)c3ccc(O)c(O)c3)CS[C@H]12)c1csc(N)n1)C(=O)O | 16 (≈ 25.8 µM) | 44.8 | 8 (≈ 12.9 µM) | 16 (≈ 25.8 µM) | 27.2 | 0.008 (≈ 0.0129 µM) | 0.06 (≈ 0.0967 µM) | 0.015 (≈ 0.0242 µM) | 8.5 | < 0.008 | 96.3 | 0.0125 (≈ 0.0201 µM) | 1.25 |  |  |  | 
CC(C)(O/N=C(\C(=O)N[C@@H]1C(=O)N2C(C(=O)[O-])=C(C[n+]3ccccc3)CS[C@H]12)c1csc(N)n1)C(=O)O [CEFTAZIDIME] | 32 (≈ 58.5 µM) |  | 4 (≈ 7.32 µM) | 8 (≈ 14.6 µM) | 14 | 0.06 (≈ 0.11 µM) |  | 1 (≈ 1.83 µM) |  | 0.125 (≈ 0.229 µM) |  | 0.125 (≈ 0.229 µM) | 0.7 | 16 (≈ 29.3 µM) | 1 |  | 
CCn1cc(C(=O)NCC2=C(C(=O)O)N3C(=O)[C@@H](NC(=O)/C(=N\OC(C)(C)C(=O)O)c4csc(N)n4)[C@H]3SC2)c(=O)c2cc(O)c(O)cc21 | 0.25 (≈ 0.349 µM) | 17.5 | 16 (≈ 22.4 µM) | 16 (≈ 22.4 µM) | 238.5 | 0.008 (≈ 0.0112 µM) |  | 0.06 (≈ 0.0838 µM) | 7.2 | < 0.008 | 99 | 0.06 (≈ 0.0838 µM) | 3.5 | < 0.008 |  | 0.01 | 
CO/N=C(\C(=O)N[C@@H]1C(=O)N2C(C(=O)O)=C(CSc3nc(=O)c(O)nn3C)CS[C@H]12)c1csc(N)n1 [CEFTRIAXONE] |  | 25.4 |  |  |  |  |  |  |  |  |  |  |  |  |  |  | 94.5
